In US20140018435A1, “Transdermal Delivery of Therapeutic Agents Using Poly (Amidoamine) Dendrimers” (UNIVERSITY OF ILLINOIS CHICAGO, priority 2012, published 2014):
Read-outs that look alike come from different tables or passages of the source.

What was measured:
[1] = test system: ER positive invasive breast cancer; details: gel, 0.5 or 1 mg per breast per day; cited from earlier work
[2] = test system: breast cancer cell growth; details: tissue culture; cited from earlier work
[3] = gel, cited from earlier work
[4] = after 24 hours of co-treatment; cited from earlier work
[5] = taken orally for five years; cited from earlier work
[6] = 24 hours dendrimer pre-treatment, then 5-FU in isopropyl myristate for 48 hrs; cited from earlier work
[7] = Franz diffusion cell skin permeation/retention, porcine skin; format: in vitro ADME; details: detection limit 9 ng/mL
[8] = at pH 74; cited from earlier work

For 4-hydroxytamoxifen [4-OHT], the “reduction of Ki-67 labeling” value [1] is given as “reduced the Ki-67 labeling to a similar degree as oral TAM”, the “potency in suppressing breast cancer cell growth relative to TAM” value [2] is given as “two-log greater potency” and the “plasma level as fraction of those seen after 20 mg of oral TAM” value ([3]; 0.5 mg per breast per day) is given as “approximately 1/30”. For the same compound, the “plasma levels of 4-OHT” value ([3]; 0.5 mg per breast per day) was 0.05 ng/mL, the “plasma level as fraction of those seen after 20 mg of oral TAM” value ([3]; 1 mg per breast per day) was 1/12 and the “plasma levels of 4-OHT” value ([3]; 1 mg per breast per day) was 0.13 ng/mL.

For `CC(C(=O)O)c1cccc(C(=O)c2ccccc2)c1` (stereo not drawn) [Ketoprofen], the “increase of accumulative permeated amount by complexing with PAMAM dendrimers, as compared to the free drug” value [4] is listed as 3.4 times.

In the case of `CC/C(=C(\c1ccccc1)c1ccc(OCCN(C)C)cc1)c1ccccc1` [tamoxifen], the “reduction of breast cancer risk” value [5] is given as “about 50%”.

For `O=C(O)c1cc(-c2ccc(F)cc2F)ccc1O` [Diflunisal], the “increase of accumulative permeated amount by complexing with PAMAM dendrimers, as compared to the free drug” value [4] is given as 3.2 times.

For `O=c1[nH]cc(F)c(=O)[nH]1` [5-FU, 5-fluorouracil], the “fold enhancement in permeability coefficient” value [6] is listed as “Up to 4 fold”.

In the case of `CC/C(=C(\c1ccc(O)cc1)c1ccc(OCCNC)cc1)c1ccccc1` [endoxifen], the “endoxifen collected from the receiver solution (RP-HPLC)” value [7] is reported as < 9 ng/mL.

For `CCCCCCCC/C=C\CCCCCCCC(=O)O` [OA, oleic acid], the reported partition coefficient [8] is given as 7.3.
